Holding throughout (experiment): Kinase inhibitor library screening, PrestoBlue cell viability, 1 or 10 μM, 72 h
In series [1] the test system is IGR37-GP cells (Dabrafenib-resistant). Particulars: IGR37 GP, 72 h.
The subject of series [2] is 501Mel-XP cells (Vemurafenib-resistant). As to conditions: 501Mel XP, 72 h, in %.
The test system of the next series is IGR37 cells (parental). As to conditions: IGR37 Parental, 72 h, in %.
Series [3] deals with IGR37-XP cells (Vemurafenib-resistant). As to conditions: IGR37 XP, 72 h.
Series [4] deals with 501Mel-GP cells (Dabrafenib-resistant). As to conditions: 501Mel GP, 72 h, in %.
The next series deals with A375 cells (parental). Particulars: A375 Parental, 72 h.
Series [5] deals with A375-XP cells (Vemurafenib-resistant). As to conditions: A375 XP, 72 h.
In series [6] the test system is A375-GP cells (Dabrafenib-resistant). As to conditions: A375 GP, 72 h.
In another series the test system is 501Mel cells (parental). As to conditions: 501Mel Parental, 72 h, in %. Summed up:
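Cells are treated with each inhibitor at 1 or 10 μM, incubated 72 h, then PrestoBlue reagent is added and the plate is read. Data are normalised to untreated cells.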

Regarding `CNC(=O)Nc1ccc(-c2nc(N3CC4CCC(C3)O4)c3cnn(C4CCC5(CC4)OCCO5)c3n2)cc1` [WYE-125132], in series [1] (10μΜ), the Cell viability in kinase inhibitor library screening, IGR37 GP, 10μΜ stood at 34%. Also, in series [1] (1μΜ, in %), the “Cell viability in kinase inhibitor library screening, IGR37 GP, 1μΜ” value came out at 43.3. Besides, the “Cell viability in kinase inhibitor library screening, 501Mel XP, 1μΜ” value in series [2] (1μΜ) came to 18.5. Also, the “Cell viability in kinase inhibitor library screening, 501Mel XP, 10μΜ” value in [2] (10μΜ) turned out to be 5.5. For the same compound, the “Cell viability in kinase inhibitor library screening, IGR37 Parental, 1μΜ” value in the series on IGR37 cells (parental) (1μΜ) was found to be 27.6. For the same compound, the “Cell viability in kinase inhibitor library screening, IGR37 Parental, 10μΜ” value in the series on IGR37 cells (parental) (10μΜ) came out at 22.1. The Cell viability in kinase inhibitor library screening, IGR37 XP, 10μΜ in [3] (10μΜ) stood at 12.8%. In addition, the “Cell viability in kinase inhibitor library screening, IGR37 XP, 1μΜ” value in [3] (1μΜ, in %) is 30.9. For the same compound, the “Cell viability in kinase inhibitor library screening, 501Mel GP, 1μΜ” value in series [4] (1μΜ) is 16.3. Also, the “Cell viability in kinase inhibitor library screening, 501Mel GP, 10μΜ” value in series [4] (10μΜ) is reported as 8.1. Besides, in the series on A375 cells (parental) (10μΜ), the “Cell viability in kinase inhibitor library screening, A375 Parental, 10μΜ” value worked out at 19.3. In the series with A375 cells (parental) (1μΜ), the “Cell viability in kinase inhibitor library screening, A375 Parental, 1μΜ” value was determined as 22.3. Moreover, the “Cell viability in kinase inhibitor library screening, A375 XP, 1μΜ” value in series [5] (1μΜ) was 19.4. Further, the “Cell viability in kinase inhibitor library screening, A375 XP, 10μΜ” value in [5] (10μΜ) is 17.0. Moreover, the “Cell viability in kinase inhibitor library screening, A375 GP, 1μΜ” value in series [6] (1μΜ) is recorded as 22.4. Moreover, in [6] (10μΜ), the “Cell viability in kinase inhibitor library screening, A375 GP, 10μΜ” value was determined as 15.7. In addition, the “Cell viability in kinase inhibitor library screening, 501Mel Parental, 1μΜ” value in the series with 501Mel cells (parental) (1μΜ) was found to be 17.3. Moreover, the “Cell viability in kinase inhibitor library screening, 501Mel Parental, 10μΜ” value in the series with 501Mel cells (parental) (10μΜ) is 5.8.
In turn, `C=CC(=O)Nc1cccc(Oc2nc(Nc3ccc(N4CCN(C)CC4)cc3)ncc2Cl)c1` [WZ3146] displayed a cell viability, IGR37 GP, 10μΜ in series [1] (10μΜ) of 39%. For the same compound, in series [1] (1μΜ, in %), the “cell viability, IGR37 GP, 1μΜ” value came to 92.8. In addition, the “cell viability, 501Mel XP, 1μΜ” value in [2] (1μΜ) turned out to be 78.6. The “cell viability, 501Mel XP, 10μΜ” value in series [2] (10μΜ) is 0.0384. Moreover, the “cell viability, IGR37 Parental, 1μΜ” value in the series with IGR37 cells (parental) (1μΜ) came out at 96.7. Besides, the “cell viability, IGR37 Parental, 10μΜ” value in the series on IGR37 cells (parental) (10μΜ) stood at 56.4. The same compound registered a cell viability, IGR37 XP, 10μΜ in series [3] (10μΜ) of 7%. The “cell viability, IGR37 XP, 1μΜ” value in [3] (1μΜ, in %) turned out to be 73.3. In [4] (1μΜ), the “cell viability, 501Mel GP, 1μΜ” value is on record as 102.6. Moreover, the “cell viability, 501Mel GP, 10μΜ” value in series [4] (10μΜ) is on record as 53.7. Besides, in the series with A375 cells (parental) (1μΜ, in %), the “cell viability, A375 Parental, 1μΜ” value was 87.2. For the same compound, the “cell viability, A375 Parental, 10μΜ” value in the series on A375 cells (parental) (10μΜ, in %) is reported as 30.7. In addition, the “cell viability, A375 XP, 1μΜ” value in [5] (1μΜ, in %) turned out to be 94.3. In addition, in series [5] (10μΜ, in %), the “cell viability, A375 XP, 10μΜ” value was 20.1. Further, the “cell viability, A375 GP, 1μΜ” value in [6] (1μΜ, in %) was found to be 82.9. Also, in [6] (10μΜ, in %), the “cell viability, A375 GP, 10μΜ” value was determined as 22.9. Further, the “cell viability, 501Mel Parental, 10μΜ” value with 501Mel cells (parental) (10μΜ) is 1.1.

These data come from paper PMC6364417, “Kinase inhibitor library screening identifies synergistic drug combinations effective in sensitive and resistant melanoma cells” (Journal of Experimental & Clinical Cancer Research : CR, 2019).
